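Tested at 5 concentrations; 48 h exposure; 96-well plates; endpoints linearly interpolated, else capped at highest concentration. Here, GI50 denotes the concentration required for 50% inhibition of growth. TGI is the concentration that stops growth completely.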
Key:
Assay in all cases: growth of human tumour cells (NCI), 48 h
786-0 renal = system: 786-0 renal
NCI/ADR-RES ovarian = system: NCI/ADR-RES ovarian
SF-539 CNS = system: SF-539 CNS
CAKI-1 renal = system: CAKI-1 renal
SK-MEL-5 melanoma = system: SK-MEL-5 melanoma
HCT-15 colon = system: HCT-15 colon
UACC-257 melanoma = system: UACC-257 melanoma
SNB-19 CNS = system: SNB-19 CNS
MDA-MB-435 = system: MDA-MB-435
PC-3 prostate = system: PC-3 prostate
SW-620 colon = system: SW-620 colon
BT-549 breast = system: BT-549 breast
UACC-62 melanoma = system: UACC-62 melanoma
OVCAR-5 ovarian = system: OVCAR-5 ovarian
HL-60(TB) leukemia = system: HL-60(TB) leukemia
EKVX NSCLC = system: EKVX NSCLC
RPMI-8226 leukemia = system: RPMI-8226 leukemia
SK-OV-3 ovarian = system: SK-OV-3 ovarian
T-47D breast = system: T-47D breast
HS 578T breast = system: HS 578T breast
NCI-H522 lung = system: NCI-H522 lung
M14 melanoma = system: M14 melanoma
KM12 colon = system: KM12 colon
NCI-H226 lung = system: NCI-H226 lung
SK-MEL-2 melanoma = system: SK-MEL-2 melanoma
CCRF-CEM leukemia = system: CCRF-CEM leukemia
UO-31 renal = system: UO-31 renal
OVCAR-8 ovarian = system: OVCAR-8 ovarian
NCI-H23 lung = system: NCI-H23 lung
IGROV1 ovarian = system: IGROV1 ovarian
HOP-92 NSCLC = system: HOP-92 NSCLC
HCC-2998 colon = system: HCC-2998 colon
SNB-75 CNS = system: SNB-75 CNS
HOP-62 NSCLC = system: HOP-62 NSCLC
MALME-3M melanoma = system: MALME-3M melanoma
MOLT-4 leukemia = system: MOLT-4 leukemia
OVCAR-4 ovarian = system: OVCAR-4 ovarian
RXF 393 renal = system: RXF 393 renal
MDA-MB-231 breast = system: MDA-MB-231 breast
ACHN renal = system: ACHN renal
SN12C renal = system: SN12C renal
SF-268 CNS = system: SF-268 CNS
DU-145 prostate = system: DU-145 prostate
HT29 colon = system: HT29 colon
SR leukemia = system: SR leukemia
SK-MEL-28 melanoma = system: SK-MEL-28 melanoma
MCF7 breast = system: MCF7 breast
SF-295 CNS = system: SF-295 CNS
OVCAR-3 ovarian = system: OVCAR-3 ovarian
COLO 205 colon = system: COLO 205 colon
NCI-H460 lung = system: NCI-H460 lung
U251 CNS = system: U251 CNS
TK-10 renal = system: TK-10 renal
HCT-116 colon = system: HCT-116 colon
A549 NSCLC = system: A549 NSCLC
LOX IMVI melanoma = system: LOX IMVI melanoma
K-562 leukemia = system: K-562 leukemia

**Q.** Which results are given for `CC(C)=CCc1c(O)c(CC=C(C)C)c2c(c1O)C(=O)C1=C[C@@H]3C[C@H]4C(C)(C)O[C@@](C/C=C(\C)C(=O)O)(C3=O)[C@@]14O2`?
**A.** GI50 (786-0 renal): 18.8 µM; TGI (786-0 renal): 37.3 µM; GI50 (NCI/ADR-RES ovarian): 33.3 µM; TGI (NCI/ADR-RES ovarian): > 100 µM; GI50 (SF-539 CNS): 17.3 µM; TGI (SF-539 CNS): 41.2 µM; GI50 (CAKI-1 renal): 29.4 µM; TGI (CAKI-1 renal): > 100 µM; GI50 (SK-MEL-5 melanoma): 18.8 µM; TGI (SK-MEL-5 melanoma): 36.1 µM; GI50 (HCT-15 colon): 23.9 µM; TGI (HCT-15 colon): > 100 µM; GI50 (UACC-257 melanoma): 21.6 µM; TGI (UACC-257 melanoma): 55 µM; GI50 (SNB-19 CNS): 30.2 µM; TGI (SNB-19 CNS): 94.4 µM; GI50 (MDA-MB-435): 23.9 µM; TGI (MDA-MB-435): 62.9 µM; GI50 (PC-3 prostate): 25 µM; TGI (PC-3 prostate): 64.8 µM; GI50 (SW-620 colon): 19.9 µM; TGI (SW-620 colon): 50.4 µM; GI50 (BT-549 breast): 16.8 µM; TGI (BT-549 breast): 33.8 µM; GI50 (UACC-62 melanoma): 19.9 µM; TGI (UACC-62 melanoma): 50.8 µM; GI50 (OVCAR-5 ovarian): 32.9 µM; TGI (OVCAR-5 ovarian): 98.1 µM; GI50 (HL-60(TB) leukemia): 21.1 µM; TGI (HL-60(TB) leukemia): 70.3 µM; GI50 (EKVX NSCLC): 27.5 µM; TGI (EKVX NSCLC): > 100 µM; GI50 (RPMI-8226 leukemia): 12.8 µM; TGI (RPMI-8226 leukemia): 50.8 µM; GI50 (SK-OV-3 ovarian): 59.6 µM; TGI (SK-OV-3 ovarian): > 100 µM; GI50 (T-47D breast): 23.6 µM; TGI (T-47D breast): 79.3 µM; GI50 (HS 578T breast): 42.6 µM; TGI (HS 578T breast): > 100 µM; GI50 (NCI-H522 lung): 15.9 µM; TGI (NCI-H522 lung): 36 µM; GI50 (M14 melanoma): 19.9 µM; TGI (M14 melanoma): 52.3 µM; GI50 (KM12 colon): 21.2 µM; TGI (KM12 colon): 47.1 µM; GI50 (NCI-H226 lung): 25.4 µM; TGI (NCI-H226 lung): 58.9 µM; GI50 (SK-MEL-2 melanoma): 19.8 µM; TGI (SK-MEL-2 melanoma): 43 µM; GI50 (CCRF-CEM leukemia): 18.5 µM; TGI (CCRF-CEM leukemia): 76.5 µM; GI50 (UO-31 renal): 14.3 µM; TGI (UO-31 renal): 31.8 µM; GI50 (OVCAR-8 ovarian): 28.4 µM; TGI (OVCAR-8 ovarian): > 100 µM; GI50 (NCI-H23 lung): 22.5 µM; TGI (NCI-H23 lung): 69.2 µM; GI50 (IGROV1 ovarian): 26.7 µM; TGI (IGROV1 ovarian): 83.2 µM; GI50 (HOP-92 NSCLC): 19 µM; TGI (HOP-92 NSCLC): 45 µM; GI50 (HCC-2998 colon): 19.6 µM; TGI (HCC-2998 colon): 40.1 µM; GI50 (SNB-75 CNS): 31.9 µM; TGI (SNB-75 CNS): > 100 µM; GI50 (HOP-62 NSCLC): 23.8 µM; TGI (HOP-62 NSCLC): 58.7 µM; GI50 (MALME-3M melanoma): 18 µM; TGI (MALME-3M melanoma): 50.9 µM; GI50 (MOLT-4 leukemia): 25.1 µM; TGI (MOLT-4 leukemia): 93.4 µM; GI50 (OVCAR-4 ovarian): 41.7 µM; TGI (OVCAR-4 ovarian): > 100 µM; GI50 (RXF 393 renal): 21.6 µM; TGI (RXF 393 renal): 42.2 µM; GI50 (MDA-MB-231 breast): 42.1 µM; TGI (MDA-MB-231 breast): > 100 µM; GI50 (ACHN renal): 29.7 µM; TGI (ACHN renal): > 100 µM; GI50 (SN12C renal): 29.4 µM; TGI (SN12C renal): > 100 µM; GI50 (SF-268 CNS): 26.6 µM; TGI (SF-268 CNS): > 100 µM; GI50 (DU-145 prostate): 25.9 µM; TGI (DU-145 prostate): 68 µM; GI50 (HT29 colon): 23.7 µM; TGI (HT29 colon): 64.3 µM; GI50 (SR leukemia): 16.1 µM; TGI (SR leukemia): > 100 µM; GI50 (SK-MEL-28 melanoma): 24.8 µM; TGI (SK-MEL-28 melanoma): 69.1 µM; GI50 (MCF7 breast): 19 µM; TGI (MCF7 breast): > 100 µM; GI50 (SF-295 CNS): 33.9 µM; TGI (SF-295 CNS): > 100 µM; GI50 (OVCAR-3 ovarian): 18.1 µM; TGI (OVCAR-3 ovarian): 34.2 µM; GI50 (COLO 205 colon): 19.3 µM; TGI (COLO 205 colon): 45.5 µM; GI50 (NCI-H460 lung): 19.8 µM; TGI (NCI-H460 lung): 44 µM; GI50 (U251 CNS): 17.4 µM; TGI (U251 CNS): 38.5 µM; GI50 (TK-10 renal): 25.6 µM; TGI (TK-10 renal): 50.9 µM; GI50 (HCT-116 colon): 18 µM; TGI (HCT-116 colon): 34.2 µM; GI50 (A549 NSCLC): 38.4 µM; TGI (A549 NSCLC): > 100 µM; GI50 (LOX IMVI melanoma): 14.4 µM; TGI (LOX IMVI melanoma): 28.6 µM; GI50 (K-562 leukemia): 24 µM; TGI (K-562 leukemia): > 100 µM
